≈ marks a conversion by molar mass, not a printed value. Where two headings read alike, the source gives them in different places.
Experiments:
recombinant human sEH = biological target: T1, recombinant human sEH (Homo sapiens, UniProt P34913); assay: In vitro determination of sEH inhibition activity (fluorescent assay, PHOME substrate); assay type: biochemical; settings: mean ± Standard Error, min. three replicates, read-out: IC50 (nM) ± SE, sEH inhibition activity
T1 construct: purchased Cayman Chemical 10011669
T1 sequence (P34913 1-555): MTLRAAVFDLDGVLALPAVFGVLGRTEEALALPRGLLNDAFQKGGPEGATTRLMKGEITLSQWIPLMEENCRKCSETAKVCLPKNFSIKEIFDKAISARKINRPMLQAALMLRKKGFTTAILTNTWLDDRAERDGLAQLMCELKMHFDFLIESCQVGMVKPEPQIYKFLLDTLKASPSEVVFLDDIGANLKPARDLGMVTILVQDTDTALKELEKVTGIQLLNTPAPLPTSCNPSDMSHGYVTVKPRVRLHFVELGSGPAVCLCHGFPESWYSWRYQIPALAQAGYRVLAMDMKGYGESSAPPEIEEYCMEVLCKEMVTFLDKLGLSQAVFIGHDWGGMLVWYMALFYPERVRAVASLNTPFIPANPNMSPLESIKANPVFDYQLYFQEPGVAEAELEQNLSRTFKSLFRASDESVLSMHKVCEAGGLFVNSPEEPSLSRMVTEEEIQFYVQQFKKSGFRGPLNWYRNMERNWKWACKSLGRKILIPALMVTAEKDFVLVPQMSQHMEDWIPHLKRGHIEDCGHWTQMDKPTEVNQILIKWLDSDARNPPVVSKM
Procedure: 3-(Phenyl-oxiranyl)-acetic acid cyano-(6-methoxy-naphthalen-2-yl)-methyl ester (PHOME; from Cayman Chemical, item number 10009134; CAS 1028430-42-3); cf. N. M. Wolf et al., Anal. Biochem. 2006, vol. 355, pp. 71-80.
Solutions: • Assay buffer: Bis/Tris HCl 25 mM pH 7.0 containing 0.1 mg/mL of bovine serum albumin (BSA). • PHOME at 200 μM in DMSO. • Solution of recombinant human sEH (Cayman Chemical, item number 10011669), diluted with assay buffer. • Inhibitors dissolved in DMSO at appropriated concentrations.
In a black 96-well plate (Greiner Bio-One, item number 655900), fill the background wells with 90 μL and the positive control and inhibitor wells with 85 μL of assay buffer. Add 5 μL of DMSO to background and positive control wells, and then add 5 μL of inhibitor solution in inhibitor wells. Add 5 μL of the solution of hsEH to the positive control and inhibitor wells and mix several time. Prepare a 1/21 dilution of the solution of PHOME with assay buffer according to final volume required, and then add 105 μL of each well. Shake carefully the plate for 10 seconds and incubate for 5 minutes at room temperature. […] Results were obtained by regression analysis from at least three data points in a linear region of the curve. IC50 values are average of minimum three independent replicates.

[1] = Determination of water solubility (nephelometry); assay type: physicochemical; settings: aqueous with cosolvent or surfactant or cyclodextrin, kinetic from dmso stock; 5% DMSO: 95% PBS buffer, 37° C., read after 2 and 4 h; read-out: S (solubility)
[2] = Determination of cytotoxicity in THLE-2 cells (ATP viability); assay type: cell-based; settings: human
Procedure: Cytotoxic effects of assayed compounds were tested using the immortalized human liver cell line THLE-2 (ATCC CRL-2706). Cells were cultured in BEGM medium (Clonetics # CC-4175) containing all the supplements kit except additional EGF and G418. Medium was completed by adding 0.7 μg/mL phosphoethanolamine, 0.5 ng/mL epidermal growth factor, antibiotics (penicillin and streptomycin) and 10% fetal bovine serum (FBS).
Cells were plated in 96-well black microplates at 10,000 cells/well density and were incubated at 37° C. (5% CO2, 95% humidity) for 24 h to allow the cells to adhere and form a monolayer. Test compounds were solubilized in 100% DMSO at a concentration curve way and then diluted with cell culture medium containing 10% DMSO. The final concentrations of the test compounds (1% DMSO) ranged from 0-100 μM in a final volume of 200 μL. Microplates were maintained at 37° C. (5% CO2, 95% humidity) during 3 days. Following this 72 h exposure to test compounds, cell viability in each well was determined by measuring the concentration of cellular adenosine triphosphate (ATP) using the ATP1Step Kit as described by the manufacturer (Perkin-Elmer). In a typical procedure, 50 μL of cell reagent is added to all wells of each test plate followed by incubation for 10 min at room temperature on an orbital shaker. ATP concentration was determined by reading chemical luminescence using the Envision plate reader (PerkinElmer). The percentage of viable cells relative to the non-drug treated controls was determined for each well and LC50 values were calculated as concentrations projected to kill 50% of the cells following a 72 h exposure, an average of minimum two independent replicates.

[3] = Parallel artificial membrane permeation assay for blood-brain barrier (PAMPA-BBB); assay type: in vitro ADME, porcine; settings: PBS:EtOH (70:30)
Procedure: The in vitro permeability (Pe) of the test compounds through lipid extract of porcine brain membrane was determined. Assayed compounds were tested using a mixture of PBS:EtOH (70:30). […] From this equation and taking into account the limits established by Di et al. for BBB permeation, the ranges of permeability were established, as follows.

CYP1A2 = biological target: T2, CYP1A2 (Homo sapiens, UniProt P05177); assay: Inhibition of human cytochrome P450 CYP1A2; assay type: in vitro ADME; settings: human cytochrome P450 enzyme
T2 sequence (P05177 1-516): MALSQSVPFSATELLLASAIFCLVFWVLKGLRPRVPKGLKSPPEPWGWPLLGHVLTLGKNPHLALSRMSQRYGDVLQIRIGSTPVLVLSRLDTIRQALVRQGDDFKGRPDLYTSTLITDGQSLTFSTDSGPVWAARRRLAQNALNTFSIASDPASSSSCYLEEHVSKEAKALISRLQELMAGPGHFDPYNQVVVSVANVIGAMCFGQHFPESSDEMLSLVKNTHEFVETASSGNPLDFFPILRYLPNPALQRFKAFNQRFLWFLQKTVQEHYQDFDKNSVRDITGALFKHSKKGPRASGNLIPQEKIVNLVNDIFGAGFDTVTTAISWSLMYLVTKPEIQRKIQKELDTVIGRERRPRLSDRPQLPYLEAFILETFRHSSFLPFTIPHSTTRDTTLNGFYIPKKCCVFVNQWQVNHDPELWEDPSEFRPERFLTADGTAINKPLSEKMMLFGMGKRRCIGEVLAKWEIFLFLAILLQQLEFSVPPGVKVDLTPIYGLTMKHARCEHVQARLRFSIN
Text: (§1) The epoxidation of arachidonic acid (AA) by selected cytochrome P450 epoxygenases generates epoxyeicosatrienoic acids (EETs). These EETs show anti-inflammatory, antihypertensive, analgesic, angiogenic, and antiatherosclerotic effects in rodents and humans. sEH converts EETs to their corresponding dihydroxyeicosatrienoic acids (DHETs), whereby the biological effects of EETs are diminished, eliminated, or altered. Among the P450 enzymes, it is known that CYP2C19 and CYP1A2 have the highest formation rate of EETs from AA (cf. A. A. El-Sherbeni et al. “Repurposing resveratrol and fluconazole to modulate human cytrochrome P450-mediated arachidonic acid metabolites”, Molecular Pharmaceutics 2016, vol. 13, pp. 1278-1288). For this reason, a highly desirable aspect of any new sEH inhibitor is selectivity in front of CYP2C19 and CYP1A2.

CYP2C19 = CYP2C19 (Homo sapiens, UniProt P33261); assay: Inhibition of human cytochrome P450 CYP2C19; assay type: in vitro ADME; settings: human cytochrome P450 enzyme
Text: as §1

sEH in AR42j cells = biological target: T3, sEH in AR42j cells (Rattus norvegicus, UniProt P80299); assay: In vitro determination of sEH inhibition activity in AR42j cells (cell-based fluorescent assay); settings: AR-42J, read-out: % Inhn. ± SE (100 μM), sEH inhibition activity in cell culture
T3 sequence (P80299 1-554): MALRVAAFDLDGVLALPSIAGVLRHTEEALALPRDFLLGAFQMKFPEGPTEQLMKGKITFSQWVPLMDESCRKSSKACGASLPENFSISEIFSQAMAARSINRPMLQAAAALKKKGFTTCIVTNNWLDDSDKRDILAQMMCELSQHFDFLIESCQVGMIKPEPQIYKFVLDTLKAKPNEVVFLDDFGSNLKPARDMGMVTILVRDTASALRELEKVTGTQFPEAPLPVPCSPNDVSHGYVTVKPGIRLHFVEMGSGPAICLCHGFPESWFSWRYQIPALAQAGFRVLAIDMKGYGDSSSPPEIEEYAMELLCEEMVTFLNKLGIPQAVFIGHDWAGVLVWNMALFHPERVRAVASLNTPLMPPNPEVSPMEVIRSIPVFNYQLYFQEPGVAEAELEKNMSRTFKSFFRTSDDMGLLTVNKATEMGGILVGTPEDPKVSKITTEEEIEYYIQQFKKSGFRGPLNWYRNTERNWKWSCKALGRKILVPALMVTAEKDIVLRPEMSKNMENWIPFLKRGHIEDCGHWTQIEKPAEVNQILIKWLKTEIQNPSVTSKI
Procedure: Solutions Preparation: • Assay buffer 1×: add 10 mL of the CBA-Buffer (10×) to 90 mL of distilled water. • Lysis Buffer: add 50 μL of the CBA Digitonin Solution to 10 mL of Buffer Assay 1×. • Substrate Solution: dilute 10 μL of CBA sEH Substrate with 10 mL of Assay Buffer 1×. • Standards: preparation of 7 concentrations of CBA 6-methoxy-2-naphtalaldehyde from 0 until 2 M with Assay Buffer 1×. • sEH Positive Control: Prepare another stock A (1 μg/ml: 1 μL CBA sEH Positive Control+1 mL Assay Buffer 1×). From the already prepared stock A, prepare 250 μL of sEH (10 ng/mL): 2.5 μL sEH stock A+250 μL Assay Buffer 1×). • sEH Inhibitor AUDA: dilute 10 μL CBA sEH Inhibitor with 500 ml Assay Buffer 1×. • Inhibitors dissolved in DMSO at appropriated concentrations.
Seed cells in a 96-well plate at a density of (2×10^4)-(5×10^4) cells/well in 100 μL of culture medium with or without compounds to be tested. Incubation of the cells in a CO2 incubator at 37° C. for 48 hours. Aspirate the culture medium and add 200 μL of Assay Buffer 1× to each well. Centrifuge the plate at 800 rmp for 5 minutes. Aspirate the supernatant and add 100 μL of Lysis Buffer to each well. Incubate with gentle shaking on an orbital shaker for 30 minutes at room temperature. Centrifuge the plate at 3000 rpm for 20 minutes at 4° C. Transfer 90 μL of the supernatants to the 96-Well Solid Plate (black). Add 10 μL Assay Buffer 1× or 10 μL of the AUDA solution to appropriate wells. For positive control wells, add 100 μL of the 10 ng/mL sEH Positive Control to two wells. Add 200 μL of 6-methoxy-2-Naphthaldehyde Standards to corresponding wells of the black plate. Add 100 μL of the sEH Substrate Solution to each well, except the standards. Incubate the plate at 37° C. for 30 minutes. […] The intensity of fluorescence was used to analyze and calculate inhibition percentages, shown in the Table as average of minimum three independent replicates.

Sequence of CYP2C19 (P33261 whole entry): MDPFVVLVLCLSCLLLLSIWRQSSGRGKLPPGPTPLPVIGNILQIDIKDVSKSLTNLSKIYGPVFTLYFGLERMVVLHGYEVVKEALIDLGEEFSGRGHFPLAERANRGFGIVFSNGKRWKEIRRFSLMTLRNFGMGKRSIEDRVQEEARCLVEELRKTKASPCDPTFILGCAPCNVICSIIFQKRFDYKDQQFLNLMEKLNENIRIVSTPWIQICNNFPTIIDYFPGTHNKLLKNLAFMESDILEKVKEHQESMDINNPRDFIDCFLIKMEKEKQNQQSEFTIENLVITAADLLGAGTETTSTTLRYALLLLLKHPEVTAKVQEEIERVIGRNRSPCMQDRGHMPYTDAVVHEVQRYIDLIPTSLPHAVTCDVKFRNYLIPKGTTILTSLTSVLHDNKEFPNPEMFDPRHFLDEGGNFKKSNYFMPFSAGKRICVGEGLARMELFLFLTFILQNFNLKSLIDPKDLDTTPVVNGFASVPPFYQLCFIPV

O=C(Nc1ccc(F)c(F)c1F)NC12CC3CC(C1)CC(c1ccccc1)(C3)O2 [Ie, 1-(3-phenyl-2-oxaadamantan-1-yl)-3-(2,3,4-trifluorophenyl)urea]
IC50 (recombinant human sEH): 21.3 ± 4.3 nM

CCC12CC3CC(C1)CC(NC(=O)Nc1ccc(F)c(F)c1F)(C3)O2 [Ic, 1-(3-ethyl-2-oxaadamantan-1-yl)-3-(2,3,4-trifluorophenyl)urea]
IC50 (recombinant human sEH): 8.1 ± 3.2 nM | solubility [1]: 77 µM (≈ 27.3 µg/mL) | CC50 at 72 h [2]: > 100 µM | CNS prediction [3]: CNS+ (Compounds of high BBB permeation (CNS+): Pe (10^6 cm s^−1)>5.181)

O=C(Nc1ccc(F)c(F)c1F)N[C@@]12CC3C[C@H](C1)C[C@](C1CCCCC1)(C3)O2 (stereo in doubt) [Id, 1-(3-cyclohexyl-2-oxaadamantan-1-yl)-3-(2,3,4-trifluorophenyl)urea]
IC50 (recombinant human sEH): 17.5 ± 3.6 nM

CC12CC3CC(C1)CC(NC(=O)Nc1ccc(F)c(F)c1F)(C3)O2 [Ib, 1-(3-methyl-2-oxaadamantan-1-yl)-3-(2,3,4-trifluorophenyl)urea]
IC50 (recombinant human sEH): 21.3 ± 5.4 nM | solubility [1]: 63 µM (≈ 21.4 µg/mL) | CC50 at 72 h [2]: > 100 µM | CNS prediction [3]: CNS+ (Compounds of high BBB permeation (CNS+): Pe (10^6 cm s^−1)>5.181)

CC(=O)N1CCC(NC(=O)NC23CC4CC(CC(C4)O2)C3)CC1 [If, 1-(2-oxaadamantan-1-yl)-3-(1-acetylpiperidin-4-yl)urea]
IC50 (recombinant human sEH): 19.8 ± 6.2 nM | solubility [1]: > 100 µM | CC50 at 72 h ([2]; THLE-2 cells, 72 h exposure, 0-100 μM, read-out: LC50 (μM), cytotoxicity): > 100 µM | inhibition at 1 µM (CYP1A2): ≤ 6% | inhibition at 1 µM (CYP2C19): ≤ 6% | inhibition at 100 µM (sEH in AR42j cells): 42.1 ± 5%

Source: patent US20200079786A1, “ANALOGS OF […] AS SOLUBLE EPOXIDE HYDROLASE INHIBITORS” (UNIVERSITAT DE BARCELONA, priority 2015, published 2020)
